# Patent publication US6878689B2, “Preventives or remedies for heart failure” (Kaken Pharmaceutical Co., Ltd., priority 2000, dated 2005)
# Where a SMILES comes first, the peptide text is derived from it. [ ]: non-standard residue; d: D form. d2Nal = N[C@H](Cc1ccc2ccccc2c1)C(=O)O
# Tested on: anesthetized open-chest rabbits
# Experiment: Effects of intravenously administered pralmorelin on cardiac function of anesthetized open-chest rabbit
# Type: in vivo
# Procedure: [Test Example 2] Effects of Intravenously Administered Pralmorelin on the Cardiac Function of Rabbit
# The effects of pralmorelin on cardiac function were evaluated by measuring various parameters [blood pressure, heart rate, systolic left ventricular pressure (LVPsys), and maximal positive dP/dt (+dP/dtmax) obtained by differentiating the waveform of left ventricular pressure (LVP)]. The value of the maximal positive dP/dt for the left ventricular pressure (+dP/dtmax) is particularly important to determine if the cardiotonic action is sufficient to treat acute heart failure. • 1. Test Substance and Reagent • 1) Test Substance
# Pralmorelin dihydrochloride (hereunder referred to as KP-102) (prepared by the method described in WO 9304081) was dissolved in distilled water for injection to prepare a 1.5 mg/mL solution. • 2) Control
# Male NZW-strain rabbits (Kitayama Labes) weighing about 2 kg were used in the experiment. After arrival, the animals were allowed to eat a solid meal (Labo R Stock, Oriental Yeast Co., Ltd.) and drink water in a room at a temperature of 20±2° C. and at a humidity of 55±15% under 12-hr light/ dark cycles (from 7:00 to 19:00); the animals were kept under these conditions for at least 6 days before use. • 3. Test Method • 1) Measuring the Cardiac Function of Anesthetized Open-Chest Rabbit
# Rabbits were anesthetized by administering 30 mg/kg of sodium pentobarbital into the auricular vein at a slow speed with attention to their breathing. The animals were then fixed in supine position and an endotracheal cannula was inserted. Under artificial respiration (tidal volume, 25 mL/breath; ventilation frequency, 45 breaths/min: SN-480-7 of Shinano Seisakusyo), the chest of each animal was opened by midline incision and the pericardium was incised to expose the heart. The left ventricular pressure (LVP) was measured with a pressure transducer (TP-300T, Nihon Kohden) and a pressure amplifier (AG-610G, Nihon Kohden) as a cannula with syringe was inserted from the cardiac apex into the left ventricle. The waveform of LVP was differentiated with a differentiator unit (ED-601, Nihon Kohden) to determine the maximal positive dP/dt(+dP/dtmax), which was used as an index for cardiac contractility. Blood pressure was measured with a pressure amplifier (AP-610G, Nihon Kohden) via a pressure transducer (TP-300T, Nihon Kohden) connected to a cannula inserted into the left femoral artery. Heart rate was measured with a cardiotachometer (AT-601G, Nihon Kohden) that was driven by counting the pulse waves of LVP. The parameters mentioned above were recorded on a recorder (TA-11, Gould). A cannula was inserted into the left femoral vein so as to assist in the administration of the test substance. The rectum temperature of each animal was controlled at 39° C. with a body temperature controller (TK-43, Asahi Denshi). The anesthetic was added as required but additional anesthetization should be avoided during the measurements. • 2) Groups
# After each parameter stabilized, distilled water (0.2 mL/kg) was administered over one minute with an infusion pump (FP-W-100, Toyo Sangyo K.K.) and observations were made for 5 minutes after the administration to see whether the vehicle would have no effect. About 5 minutes after the administration of distilled water, the test substance was administered with an infusion pump in a volume of 0.2 mL/kg over one minute according to the grouping method specified above. Each hemodynamic parameter was measured both before administration and 1, 3, 5, 10, 15, 20 and 25 minutes after administration and the percent changes from the basal values were calculated. In some animals, measurement was conducted until 40 minutes after the administration of the test substance. • 4. Statistical Analysis
# The results were each expressed by mean ± standard deviation. Any difference between groups was tested by repeated measures ANOVA (analysis of variance); The significance level was set at 5%. • 5. […]
# [1] = 300 μg/kg i.v. over one minute, n=4, p<0.01 vs control
structure (smiles),measurement,setting,value
"C[C@H](NC(=O)[C@@H](Cc1ccc2ccccc2c1)NC(=O)[C@@H](C)N)C(=O)N[C@@H](Cc1c[nH]c2ccccc12)C(=O)N[C@H](Cc1ccccc1)C(=O)N[C@@H](CCCCN)C(N)=O [KP-102, D-alanyl-3-(naphthalen-2-yl)-D-alanyl-L-alanyl-L-tryptophyl-D-phenylalanyl-L-lysinamide] (H-[dA][d2Nal]AW[dF]K-NH2)",overall effect on heart rate,300 μg/kg i.v.,little affected
same,time until blood pressure baseline value practically restored,300 μg/kg i.v.,~25 min
same,"Maximum increase in +dP/dtmax, of the baseline value",[1],22%
same,"Maximum increase in LVPsys, of the baseline value",[1],13%
same,drop in heart rate,"300 μg/kg i.v., 3 minutes after the administration",2%
same,increase in heart rate,"300 μg/kg i.v., 15 minutes after the administration",1%
same,increase in heart rate,"300 μg/kg i.v., 25 minutes after the administration",2%
same,period of peak of cardiotonic action,"300 μg/kg i.v., LVPsys and +dP/dtmax",5 to 10 min
same,time until baseline values of LVPsys and +dP/dtmax restored,"300 μg/kg i.v., one case with extended monitoring",≤ 40 min
same,effect on mean blood pressure,"300 μg/kg i.v., p<0.05 vs control",significant rise of blood pressure
